The test deals with T1, abc isoform of human TMEM16A channel expressed in CHO cells (Homo sapiens, UniProt Q5XXA6, DEL476-501).
T1 construct: expressed in transfected cells; host or cells: CHO cells, doxycycline-inducible expression under Blasticidin/Zeocin selection
T1 sequence (Q5XXA6 with tags, fused parts or gaps isoform Q5XXA6-5 DEL539-564): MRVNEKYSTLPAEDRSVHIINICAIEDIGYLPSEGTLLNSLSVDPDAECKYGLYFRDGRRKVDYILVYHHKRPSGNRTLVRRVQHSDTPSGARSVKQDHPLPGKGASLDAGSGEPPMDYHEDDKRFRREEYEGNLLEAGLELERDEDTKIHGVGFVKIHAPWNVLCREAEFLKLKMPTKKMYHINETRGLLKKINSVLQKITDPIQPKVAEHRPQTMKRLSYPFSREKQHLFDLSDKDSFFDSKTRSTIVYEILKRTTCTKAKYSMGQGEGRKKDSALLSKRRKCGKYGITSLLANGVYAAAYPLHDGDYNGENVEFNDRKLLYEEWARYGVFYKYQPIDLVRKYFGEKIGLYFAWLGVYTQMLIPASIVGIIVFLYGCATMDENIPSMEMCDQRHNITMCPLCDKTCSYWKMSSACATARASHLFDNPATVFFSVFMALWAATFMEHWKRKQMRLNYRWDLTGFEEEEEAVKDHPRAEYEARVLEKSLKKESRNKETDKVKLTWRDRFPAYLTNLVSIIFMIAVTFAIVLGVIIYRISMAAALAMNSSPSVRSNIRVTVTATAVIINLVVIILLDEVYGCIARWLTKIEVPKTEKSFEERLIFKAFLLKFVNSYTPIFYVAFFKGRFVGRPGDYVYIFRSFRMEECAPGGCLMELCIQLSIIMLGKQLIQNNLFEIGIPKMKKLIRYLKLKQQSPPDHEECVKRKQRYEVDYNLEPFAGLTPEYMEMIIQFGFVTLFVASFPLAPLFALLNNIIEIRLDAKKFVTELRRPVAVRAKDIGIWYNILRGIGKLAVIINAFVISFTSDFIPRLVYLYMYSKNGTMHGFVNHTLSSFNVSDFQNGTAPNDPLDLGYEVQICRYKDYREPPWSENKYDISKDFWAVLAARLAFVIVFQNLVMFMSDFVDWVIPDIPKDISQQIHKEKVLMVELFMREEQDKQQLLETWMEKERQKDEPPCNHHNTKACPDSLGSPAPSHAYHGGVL
Description: Automated patch clamping (QPatch) assay to measure TMEM16A activity in whole-cell. In kind it is cell-based. Particulars: for EC50: CHO cells expressing human TMEM16A (abc), whole-cell automated patch clamp, Hill fit, read-out: TMEM16A QPATCH assay EC50 V3 EC50; for Emax: CHO, read-out: TMEM16A QPATCH assay EC50 V3 Assay Window (% TMEM16A max activation); for Emax / TMEM16A QPATCH assay EC50 V3 Assay Window (% TMEM16A max activation): maximum current at highest dose relative to reference potentiator at maximal concentration (upper limit) and vehicle (lower limit). In a few lines: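 Whole-cell currents were recorded by planar automated patch clamp from induced CHO cells (doxycycline 1 μg/mL, 18-24 h), using a −70 mV hold, +70 mV step and −90 to +70 mV ramp. Values: Hill-fitted EC50, and activation scaled between vehicle current and reference-potentiator maximum; 0.3% DMSO final.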
(The patch-clamp technique gives a direct electrical read-out from membranes.)

Where a name gives a salt, the structure may show the parent alone.

Broadly, the EC50 is the midpoint of the concentration-response curve. Take `CCC(CC)NC(=O)c1cnc(-c2cccc(-c3cc(C(=O)NC(COC)C(C)C)n[nH]3)c2)o1` (stereo not drawn) [Example 3.36, 2-(3-(3-((1-Methoxy-3-Methylbutan-2-Yl)Carbamoyl)-1H-Pyrazol-5-Yl)Phenyl)-N-(Pentan-3-Yl)Oxazole-5-Carboxamide]: the EC50 came to 190 nM and the Emax is 97%.
With `C[C@H](NC(=O)c1cc(-c2cccc(-c3ncc(C(=O)N[C@H](C)C4CC4)o3)c2)nn1CC(O)C(F)(F)F)C1CC1` (stereo partly drawn) [Example 8.2, N-((R)-1-Cyclopropylethyl)-2-(3-(5-(((S)-1-Cyclopropylethyl)Carbamoyl)-1-(3,3,3-Trifluoro-2-Hydroxypropyl)-1H-Pyrazol-3-Yl)Phenyl)Oxazole-5-Carboxamide], the EC50 was found to be 450 nM and the Emax turned out to be 119%.
Take `CCC(CC)NC(=O)c1cnc(-c2cccc(-c3cc(C(=O)N[C@@H](C#N)CC)n[nH]3)c2)o1` (single isomer, unassigned) [Example 3.26, (R)-2-(3-(3-((1-Cyanopropyl)Carbamoyl)-1H-Pyrazol-5-Yl)Phenyl)-N-(Pentan-3-Yl)Oxazole-5-Carboxamide or (S)-2-(3-(3-((1-Cyanopropyl)Carbamoyl)-1H-Pyrazol-5-Yl)Phenyl)-N-(Pentan-3-Yl)Oxazole-5-Carboxamide]: the EC50 worked out at 240 nM and the “TMEM16A QPATCH assay EC50 V3 Assay Window (% TMEM16A max activation)” value is given as 109%.
In the case of `CCOC(=O)[C@@H](NC(=O)c1cnc(-c2cccc(-c3cc(C(=O)NC(CC)CC)n(CCN4CCOCC4)n3)c2)o1)C(C)C` [Example 6.0, (S)-ethyl 3-methyl-2-(2-(3-(1-(2-morpholinoethyl)-5-(pentan-3-ylcarbamoyl)-1H-pyrazol-3-yl)phenyl)oxazole-5-carboxamido)butanoate], the EC50 came out at 310 nM and the Emax stood at 90%.
Turning to `CCC(CC)NC(=O)c1cnc(-c2cccc(-c3cc(C(=O)NC(CC)CC)n(CCO)n3)c2)o1` [Example 9.7, 2-(3-(1-(2-Hydroxyethyl)-5-(Pentan-3-Ylcarbamoyl)-1H-Pyrazol-3-Yl)Phenyl)-N-(Pentan-3-Yl)Oxazole-5-Carboxamide], the EC50 came to 90 nM and the Emax was 85%.
For `CCC(CC)NC(=O)c1cnc(-c2cccc(-c3cc(C(=O)NC4CCCCC4)n[nH]3)c2)o1` [Example 3.40, 2-(3-(3-(Cyclohexylcarbamoyl)-1 H-Pyrazol-5-Yl)Phenyl)-N-(Pentan-3-yl)Oxazole-5-Carboxamide], the EC50 was found to be 70 nM and the Emax was determined as 96%.
In the case of `COC(=O)[C@H](CC(C)C)NC(=O)c1cc(-c2cccc(-c3ncc(C(=O)N[C@@H](CC(C)C)C(=O)OC)o3)c2)[nH]n1` [Example 3.58, (S)-Methyl 2-(2-(3-(3-(((S)-1-Methoxy-4-Methyl-1-Oxopentan-2-Yl)Carbamoyl)-1H-Pyrazol-5-Yl)Phenyl)Oxazole-5-Carboxamido)-4-Methylpentanoate], the concentration giving a half-maximal response (EC50) turned out to be 270 nM and the Emax amounted to 77%.
`CCC(CC)NC(=O)c1cc(-c2cccc(-c3ncc(C(=O)N[C@@H](C)C(=O)OCc4ccccc4)o3)c2)[nH]n1` [Example 1.41, (S)-Benzyl 2-(2-(3-(3-(Pentan-3-Ylcarbamoyl)-1H-Pyrazol-5-yl)Phenyl)Oxazole-5-Carboxamido)Propanoate]: the EC50 turned out to be 950 nM and the Emax is 75%.
As for `CC(C)OC(=O)[C@@H](NC(=O)c1cnc(-c2cccc(-c3nnc(C(=O)N[C@@H](C)C4CC4)[nH]3)c2)o1)C(C)C` [Example 12.12], the EC50 is 190 nM and the Emax came out at 92%.
In the case of `CCC(CC)NC(=O)c1cnc(-c2cccc(-c3cc(C(=O)N[C@@H](C(=O)OC)c4ccccc4)n[nH]3)c2)o1` [Example 3.65, (R)-Methyl 2-(5-(3-(5-(Pentan-3-Ylcarbamoyl)Oxazol-2-Yl)Phenyl)-1H-Pyrazole-3-Carboxamido)-2-Phenylacetate Trifluoroacetate], the EC50 came out at 780 nM and the Emax is 28%.
Take `CCC(CC)NC(=O)c1cnc(-c2cccc(-c3cc(C(=O)N[C@@H](C)CC)n[nH]3)c2)o1` [Example 3.24, (S)-2-(3-(3-(Sec-Butylcarbamoyl)-1H-Pyrazol-5-Yl)Phenyl)-N-(Pentan-3-Yl)Oxazole-5-Carboxamide]: the EC50 came out at 40 nM and the Emax came out at 76%.
Regarding `CCOC(=O)CCCn1nc(-c2cccc(-c3ncc(C(=O)NC(CC)CC)o3)c2)nc1C(=O)NC(CC)CC` [Example 15.8, Ethyl 4-(5-(Pentan-3-Ylcarbamoyl)-3-(3-(5-(Pentan-3-Ylcarbamoyl)Oxazol-2-Yl)Phenyl)-1H-1,2,4-Triazol-1-Yl)Butanoate], the EC50 turned out to be 90 nM and the Emax amounted to 95%.
Taken in the same sequence, the figures for `CCC(CC)NC(=O)c1cc(-c2cccc(-c3ncc(C(=O)NCC4(C)CCCCC4)o3)c2)[nH]n1` [Example 1.34, N-((1-Methylcyclohexyl)Methyl)-2-(3-(3-(Pentan-3-Ylcarbamoyl)-1 H-Pyrazol-5-Yl)Phenyl)Oxazole-5-Carboxamide] were 570 nM and 72%.
`CCC(CC)NC(=O)c1cnc(-c2cccc(-c3cc(C(=O)N[C@@H](C)C4CCCCC4)n[nH]3)c2)o1` [Example 3.49, (S)-2-(3-(3-((1-Cyclohexylethyl)Carbamoyl)-1H-Pyrazol-5-Yl)Phenyl)-N-(Pentan-3-Yl)Oxazole-5-Carboxamide]: the EC50 was 170 nM and the Emax came to 72%.
On to `CCC(CC)NC(=O)c1cnc(-c2cccc(-c3cc(C(=O)N[C@@H](Cc4ccccc4)C(=O)OC)n[nH]3)c2)o1` [Example 3.50, (S)-Methyl 2-(5-(3-(5-(Pentan-3-Ylcarbamoyl)Oxazol-2-Yl)Phenyl)-1H-Pyrazole-3-Carboxamido)-3-Phenylpropanoate], for which the EC50 turned out to be 350 nM and the Emax was found to be 70%.
Turning to `CCC(CC)NC(=O)c1cc(-c2cccc(-c3ncc(C(=O)Nc4cc(C)cc(C)c4)o3)c2)[nH]n1` [Example 1.3], the EC50 was found to be 560 nM and the Emax worked out at 82%.
For the compound `CCOC(=O)[C@@H](NC(=O)c1cnc(-c2cccc(-c3cc(C(=O)NC(C4CC4)C4CC4)n(CCCO)n3)c2)o1)C(C)C` [Example 4.5, (S)-Ethyl 2-(2-(3-(5-((Dicyclopropylmethyl)Carbamoyl)-1-(3-Hydroxypropyl)-1 H-Pyrazol-3-Yl)Phenyl)Oxazole-5-Carboxamido)-3-Methylbutanoate], the concentration giving a half-maximal response (EC50) is 120 nM and the Emax is 154%.
Regarding `C[C@H](NC(=O)c1nnc(-c2cccc(-c3ncc(C(=O)N[C@@H](C)C4CC4)o3)c2)[nH]1)C1CC1` [Example 12.0, N-((S)-1-Cyclopropylethyl)-2-(3-(5-(((S)-1-Cyclopropylethyl)Carbamoyl)-4H-1,2,4-Triazol-3-Yl)Phenyl)Oxazole-5-Carboxamide], the EC50 was 300 nM and the Emax came out at 63%.
In the case of `CCC(CC)NC(=O)c1cc(-c2cccc(-c3ncc(C(=O)NC(C)(C)C)o3)c2)[nH]n1` [Example 1.13, N-(Tert-Butyl)-2-(3-(3-(Pentan-3-Ylcarbamoyl)-1H-Pyrazol-5-yl)Phenyl)Oxazole-5-Carboxamide], the EC50 is 400 nM and the Emax was determined as 112%.
Regarding `CCOC(=O)[C@@H](NC(=O)c1cc(-c2cccc(-c3ncc(C(=O)NC(CC)CC)o3)c2)nn1CCOP(=O)(OCC)OCC)C(C)C` [Example 11.0, (S)-Ethyl 2-(1-(2-((Diethoxyphosphoryl)Oxy)Ethyl)-3-(3-(5-(Pentan-3-Ylcarbamoyl)Oxazol-2-Yl)Phenyl)-1H-Pyrazole-5-Carboxamido)-3-Methylbutanoate], the EC50 came to 610 nM and the Emax is 128%.
With `COC(=O)[C@@H](NC(=O)c1cnc(-c2cccc(-c3cc(C(=O)N[C@@H](C)C4CC4)n(CC(O)C(F)(F)F)n3)c2)o1)C(C)C` (single isomer, unassigned) [8.1 (ii)], the EC50 was found to be 20 nM and the “TMEM16A QPATCH assay EC50 V3 Assay Window (% TMEM16A max activation)” value stood at 124%.

(Values after patent US20220306617A1, “SUBSTITUTED 1,3-PHENYL HETEROARYL DERIVATIVES AND THEIR USE IN THE TREATMENT OF DISEASE” (NOVARTIS AG, priority 2019, published 2022).)
